Results as given in US11248246B2, “Beta-glucosidase for producing glucose and laminarioligosaccharide from sea weed” (Korea University Research and Business Foundation, priority 2018, dated 2022).
“Also recorded” adds a separate entry of the source.

Key:
[1] = target: T1, Saccharophagus degradans 2-40^T β-glucosidase Bgl1B, recombinant (6 histidine residues at C-terminus), SEQ ID NO: 1 (nucleotide SEQ ID NO: 2) (Saccharophagus degradans, UniProt Q21KX3); experiment: Enzymatic reaction rate of Bgl1B for various substrates (Lineweaver-Burk plot); assay type: biochemical; conditions: for Vmax / kcat: pH 6, 40° C., substrate 0.1-0.4% (w/v)
T1 sequence (Q21KX3 1-444): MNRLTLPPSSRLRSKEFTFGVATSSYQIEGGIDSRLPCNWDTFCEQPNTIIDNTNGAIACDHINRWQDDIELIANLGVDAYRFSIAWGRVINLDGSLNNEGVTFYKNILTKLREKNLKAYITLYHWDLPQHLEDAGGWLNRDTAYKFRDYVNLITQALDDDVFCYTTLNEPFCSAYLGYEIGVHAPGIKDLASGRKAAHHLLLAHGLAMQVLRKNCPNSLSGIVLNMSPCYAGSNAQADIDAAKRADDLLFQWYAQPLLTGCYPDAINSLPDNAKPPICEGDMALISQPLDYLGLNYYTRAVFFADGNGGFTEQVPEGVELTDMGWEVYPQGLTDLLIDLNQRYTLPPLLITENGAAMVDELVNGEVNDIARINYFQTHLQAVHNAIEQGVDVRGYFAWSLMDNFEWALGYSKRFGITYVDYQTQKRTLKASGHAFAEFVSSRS
Protocol: To obtain the genomic DNA of Saccharophagus degradans 2-40^T (ATCC43961), Saccharophagus degradans 2-40^T was cultured in a minimal medium containing 2.3 g of instant ocean sea salt, 20 mM Tris-HCl, 2 g of glucose, 1 g of yeast extract, and 0.5 g of ammonium chloride per 1 L at 30° C. for 12 hours. The genomic DNA was extracted using a commercial DNA isolation kit (Qiagen, Valencia, Calif., USA). The target gene bgl1B was amplified from the genomic DNA by PCR. […] To purify the protein by affinity chromatography, the nucleotide sequence of a gene encoding 6 histidine residues at the C-terminus was added. The PCR product and a pET21α vector were digested with NdeI and NotI, respectively, and ligated to construct a pET21α-Bgl1B plasmid. The plasmid was transformed into Escherichia coli DH5α.
To overexpress the obtained gene, the gene was transformed into a protein-expressing host, Escherichia coli B121 (DE3). The cells were cultured in a Luria-Bertani (LB) broth containing 50 mg/L of ampicillin at 37° C. until absorbance at 600 nm reached 0.6. To induce protein expression, 0.1 mM IPTG was added and the induction temperature was set at 16° C., and a protein was allowed to be overexpressed in a water-soluble form for 16 hours. After culture, centrifugation was performed to recover the cells, the cells were released using a 20 mM Tris-HCl buffer (pH 7.4), and then disrupted by ultrasonication and centrifuged again to obtain a supernatant. The recombinant protein was purified using a HisTrap column (GE Healthcare, Piscataway, USA). The purified protein was concentrated using an Amicon Ultra Centrifugal filter (30,000 molecular weight cut-off; Millipore, Billerica, Mass., USA), and the concentration of the protein was measured using a bicinchoninic acid (BCA) protein assay kit (Thermo Fisher Scientific, San Hose, Calif., USA).
(§1) To confirm the enzymatic reaction rate of the Bgl1B protein for various substrates, the Bgl1B protein was allowed to react with each substrate at various concentrations of 0.1-0.4% (w/v) at pH 6 and 40° C. Vmax, Km, and kcat, which are parameters related to an enzymatic reaction rate, were determined from the Lineweaver-Burk plot.

Bgl1B protein = experiment: Effect of metal ions on the activity of the Bgl1B protein; assay type: biochemical, Saccharophagus degradans 2-40^T; conditions: for Relative enzymatic activity (%) / influence on enzymatic activity: 10 mM metal ion, 0.1% (w/v) cellobiose; for Relative enzymatic activity (%): relative to no metal ion
Novozyme 188 = experiment: Enzymatic reaction rate of commercialized enzyme Novozyme 188 for substrates (comparison); assay type: biochemical; conditions: pH 6, 40° C. (as for Bgl1B)
Protocol: as §1

[2] = substrate: OC[C@H]1O[C@@H](OC[C@H]2OC(O)[C@H](O)[C@@H](O)[C@@H]2O)[C@H](O)[C@@H](O)[C@@H]1O; experiment: purified protein, by the assay type; conditions: other: pH 6, 40° C., substrate 0.1-0.4% (w/v)
[3] = substrate: OC[C@H]1O[C@@H](O[C@H]2[C@H](O)[C@@H](CO)OC(O)[C@@H]2O)[C@H](O)[C@@H](O)[C@@H]1O; experiment: purified protein, by the assay type; conditions: other: pH 6, 40° C., substrate 0.1-0.4% (w/v)
[4] = substrate: OC[C@H]1O[C@@H](O[C@H]2[C@H](O)[C@@H](O)C(O)O[C@@H]2CO)[C@H](O)[C@@H](O)[C@@H]1O; experiment: purified protein, by the assay type; conditions: other: pH 6, 40° C., substrate 0.1-0.4% (w/v)
[5] = substrate: OC[C@H]1O[C@@H](O[C@H]2[C@H](O)[C@@H](O)C(O)O[C@@H]2CO)[C@H](O)[C@@H](O)[C@H]1O; experiment: purified protein, by the assay type; conditions: other: pH 6, 40° C., substrate 0.1-0.4% (w/v)
[6] = substrate: OC[C@H]1O[C@@H](O[C@H]2[C@H]3OC[C@@H]2OC(O)[C@H]3O)[C@H](O)[C@@H](O)[C@H]1O; experiment: purified protein, by the assay type; conditions: other: pH 6, 40° C., substrate 0.1-0.4% (w/v)

OC[C@H]1O[C@@H](O[C@H]2[C@H]3OC[C@@H]2OC(O)[C@H]3O)[C@H](O)[C@@H](O)[C@H]1O (some centres unmarked) [Agarobiose, agarobiose]
Vmax [1]: 3.1 × 10^−1 U/mg protein | kcat [1]: 0.26 s⁻¹

[Ca+2] [Ca^2+]
Relative enzymatic activity (%) (Bgl1B protein): 82.0 ± 1.5%

OC[C@H]1O[C@@H](O[C@H]2[C@H](O)[C@@H](O)C(O)O[C@@H]2CO)[C@H](O)[C@@H](O)[C@@H]1O (some centres unmarked) [Cellobiose, cellobiose]
Vmax [1]: 1.6 × 10^1 U/mg protein | kcat [1]: 13 s⁻¹ | Km (Novozyme 188): 3.4 mM | Vmax (Novozyme 188): 3.9 × 10^0 U/mg protein | kcat (Novozyme 188): 7.8 × 10^0 s^−1

[Co+2] [Co^2+]
influence on enzymatic activity (Bgl1B protein): does not have a great influence; also recorded: did not have a great influence | Relative enzymatic activity (%) (Bgl1B protein): 95.7 ± 1.6%

[Cu+2] [Cu^2+]
Relative enzymatic activity (%) (Bgl1B protein): 0.0 ± 0.0%

[Fe+2] [Fe^2+]
Relative enzymatic activity (%) (Bgl1B protein): 8.2 ± 0.3%

OC[C@H]1O[C@@H](OC[C@H]2OC(O)[C@H](O)[C@@H](O)[C@@H]2O)[C@H](O)[C@@H](O)[C@@H]1O (some centres unmarked) [Gentiobiose, gentiobiose]
Vmax [1]: 1.1 × 10^0 U/mg protein | kcat [1]: 0.88 s⁻¹

OC[C@H]1O[C@@H](O[C@H]2[C@H](O)[C@@H](O)C(O)O[C@@H]2CO)[C@H](O)[C@@H](O)[C@H]1O (some centres unmarked) [Lactose, lactose]
Vmax [1]: 1.0 × 10^0 U/mg protein | kcat [1]: 0.83 s⁻¹

OC[C@H]1O[C@@H](O[C@H]2[C@H](O)[C@@H](CO)OC(O)[C@@H]2O)[C@H](O)[C@@H](O)[C@@H]1O (some centres unmarked) [Laminaribiose, laminaribiose]
Vmax, fold greater than Novozyme 188 ([1]; Bgl1B compared to Novozyme 188): 259 fold | catalytic efficiency, fold greater than Novozyme 188 ([1]; Bgl1B compared to Novozyme 188): 108 fold | kcat, fold greater than Novozyme 188 ([1]; Bgl1B compared to Novozyme 188): 108 fold | Vmax [1]: 1.1 × 10^2 U/mg protein | kcat [1]: 91 s⁻¹ | Km (Novozyme 188): 2.5 mM | Vmax (Novozyme 188): 4.2 × 10^−1 U/mg protein | kcat (Novozyme 188): 0.85 s⁻¹

[Mg+2] [Mg^2+]
influence on enzymatic activity (Bgl1B protein): does not have a great influence; also recorded: did not have a great influence | Relative enzymatic activity (%) (Bgl1B protein): 98.9 ± 2.3%

[Mn+2] [Mn^2+]
Relative enzymatic activity (%) (Bgl1B protein): 52.6 ± 2.1% | inhibits enzymatic activity by (Bgl1B protein; metal ion, summary statement): about 50%

[Ni+2] [Ni^2+]
influence on enzymatic activity (Bgl1B protein): does not have a great influence; also recorded: did not have a great influence | Relative enzymatic activity (%) (Bgl1B protein): 90.3 ± 2.7%

B1: Saccharophagus degradans 2-40^T β-glucosidase Bgl1B, recombinant (6 histidine residues at C-terminus), SEQ ID NO: 1 (nucleotide SEQ ID NO: 2) (Saccharophagus … (protein)
chain: T1 sequence (Q21KX3 1-444)
Km [2]: 13 mM | Km [3]: 0.99 mM | Km [4]: 20 mM | Km [5]: 20 mM | Km [6]: 69 mM
